The source of these data is PubChem BioAssay (NCI).

Among the test systems are CAKI-1 renal; LOX IMVI melanoma; M14 melanoma; SR leukemia; UACC-62 melanoma; SF-268 CNS; TK-10 renal; RPMI-8226 leukemia; HOP-62 NSCLC; MOLT-4 leukemia.
Assay in all cases: NCI-60 cell line screen, 48 h

Where “and” joins values, the source holds several entries; their conditions need not be identical. Identical values can stand only once.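 Exposure lasted 48 hours, with cells grown in 96-well plates and compounds tested at five concentrations. GI50 marks 50% less growth. TGI is the concentration that stops growth completely.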

Regarding `O=C1CSC(=S)N1/N=C/c1ccc(Cl)c([N+](=O)[O-])c1`, the TGI in the experiment with CAKI-1 renal was above 100 µM; in the experiment with LOX IMVI melanoma it was 47.7 µM; in the experiment with M14 melanoma, 40.6 µM; in the experiment with SR leukemia, above 100 µM; with UACC-62 melanoma, 64.8 µM; in the experiment with SF-268 CNS, 40.2 µM. Besides, the TGI is above 100 µM in the experiment with TK-10 renal, above 100 µM in the experiment on RPMI-8226 leukemia, 86.3 µM in the experiment with HOP-62 NSCLC and above 100 µM in the experiment with MOLT-4 leukemia.
Take `OC(c1cc(C(F)(F)F)nc2c(C(F)(F)F)cccc12)C1CCCCN1` (stereo not given): the GI50 is 1.78 µM in the experiment on CAKI-1 renal; 1.65 µM with LOX IMVI melanoma; 1.83 µM with M14 melanoma; 3.59 µM in the experiment on SR leukemia; 1.89 µM in the experiment on UACC-62 melanoma; 3.57 µM in the experiment on SF-268 CNS. Besides, the GI50 is 1.8 µM in the experiment with TK-10 renal, 3.22 µM in the experiment on RPMI-8226 leukemia, 1.84 µM in the experiment with HOP-62 NSCLC and 2.77 µM in the experiment on MOLT-4 leukemia. Moreover, the TGI in the experiment with CAKI-1 renal came to 4.67 µM; with LOX IMVI melanoma, 3.15 µM; in the experiment with M14 melanoma, 3.41 µM; in the experiment on SR leukemia it was 8.27 µM; in the experiment on UACC-62 melanoma it was 4.47 µM; in the experiment on SF-268 CNS, 13.1 µM. Also, the TGI turned out to be 3.43 µM in the experiment with TK-10 renal, 11.5 µM in the experiment on RPMI-8226 leukemia, 5.13 µM in the experiment with HOP-62 NSCLC and 6.53 µM with MOLT-4 leukemia.
`C=C1C[C@H](O)[C@H](Br)C(C)(C)[C@@]12CCC(C)=C(Cl)C2`: the GI50 is 0.133 µM with CAKI-1 renal; 0.483 µM in the experiment on LOX IMVI melanoma; 0.314 µM in the experiment with M14 melanoma; 0.237 µM in the experiment on SR leukemia; 0.675 µM in the experiment with UACC-62 melanoma; 0.396 µM with SF-268 CNS. The GI50 is 0.373 µM with TK-10 renal, 0.229 µM with RPMI-8226 leukemia, 0.377 µM with HOP-62 NSCLC and 0.229 µM in the experiment with MOLT-4 leukemia. The TGI stood at 13.2 µM in the experiment with CAKI-1 renal; 2.07 µM in the experiment on LOX IMVI melanoma; 1.66 µM with M14 melanoma; 11.1 µM with SR leukemia; 3.15 µM in the experiment with UACC-62 melanoma; 6.25 µM in the experiment with SF-268 CNS. Also, the TGI was found to be 2.89 µM in the experiment with TK-10 renal, 1.25 µM with RPMI-8226 leukemia, 4.92 µM with HOP-62 NSCLC and 0.795 µM in the experiment on MOLT-4 leukemia.
On to `COC(=O)[C@]12CC[C@@H](C)[C@H](C)[C@@H]1C1=CC[C@@H]3[C@@]4(C)C[C@@H](O)[C@H](O)[C@@](C)(CO)[C@@H]4[C@H](O)C[C@@]3(C)[C@]1(C)CC2`, for which the GI50 with CAKI-1 renal is 13.1 µM; in the experiment on LOX IMVI melanoma, 14 µM; in the experiment with M14 melanoma, 12.8 µM; in the experiment on SR leukemia, 11.9 µM; in the experiment on UACC-62 melanoma, 10.1 µM; in the experiment on SF-268 CNS, 12.6 µM. In addition, the GI50 is 16.8 µM in the experiment on TK-10 renal, 5.18 µM with RPMI-8226 leukemia, 20.3 µM in the experiment on HOP-62 NSCLC and 4.58 µM in the experiment with MOLT-4 leukemia. For the same molecule, the TGI turned out to be 27.3 µM with CAKI-1 renal; 28 µM in the experiment on LOX IMVI melanoma; 29.4 µM in the experiment on M14 melanoma; 40.8 µM in the experiment with SR leukemia; 23.6 µM with UACC-62 melanoma; 27.5 µM in the experiment on SF-268 CNS. Further, the TGI in the experiment on TK-10 renal worked out at 31.5 µM; with RPMI-8226 leukemia, 31.3 µM; in the experiment with HOP-62 NSCLC it was 42.7 µM; in the experiment on MOLT-4 leukemia, 25.6 µM.
On to `O=C(Nc1cccc(C(F)(F)F)c1)Nc1cccc(C(F)(F)F)c1`, for which the GI50 in the experiment on CAKI-1 renal was 1.81 µM; in the experiment on LOX IMVI melanoma it was 1 µM; in the experiment on M14 melanoma it was 1.32 µM; in the experiment on SR leukemia, 1.77 µM; in the experiment on UACC-62 melanoma, 0.702 µM; in the experiment with SF-268 CNS, 2.1 µM. In addition, the GI50 was 1.3 µM with TK-10 renal, 0.382 µM in the experiment with RPMI-8226 leukemia, 1.4 µM with HOP-62 NSCLC and 1.34 µM with MOLT-4 leukemia. For the same molecule, the TGI with CAKI-1 renal is 11.2 µM; in the experiment on LOX IMVI melanoma, 2.28 µM; in the experiment with M14 melanoma it was 3.93 µM; with SR leukemia, 7.56 µM; with UACC-62 melanoma, 2.66 µM; in the experiment on SF-268 CNS, 10.9 µM. In addition, the TGI with TK-10 renal was determined as 7.2 µM; with RPMI-8226 leukemia, 5.6 µM; in the experiment with HOP-62 NSCLC, 3.64 µM; in the experiment on MOLT-4 leukemia, 6.44 µM.
With `CCNC(=O)C#Cc1ccc2c(C(=Nc3ccc(CN(C)C)cc3)c3ccccc3)c(O)[nH]c2c1`, the GI50 with CAKI-1 renal is 0.119 µM; in the experiment on LOX IMVI melanoma, 0.0067 µM; in the experiment on M14 melanoma, 0.00782 µM; in the experiment on SR leukemia it was 0.00778 µM; in the experiment on UACC-62 melanoma, 0.00709 µM; in the experiment on SF-268 CNS it was 1.35 µM. Further, the GI50 in the experiment with TK-10 renal was 0.593 µM; in the experiment on RPMI-8226 leukemia, 0.434 µM; in the experiment with HOP-62 NSCLC it was 0.109 µM; in the experiment on MOLT-4 leukemia, 0.199 µM. Besides, the TGI in the experiment on CAKI-1 renal was above 9.05 µM; in the experiment on LOX IMVI melanoma, 0.163 µM; in the experiment with M14 melanoma, 0.114 µM; in the experiment on SR leukemia, 2.93 µM; in the experiment with UACC-62 melanoma, 0.0775 µM; in the experiment on SF-268 CNS, above 9.48 µM. The TGI with TK-10 renal is above 5.41 µM; in the experiment on RPMI-8226 leukemia, 3.19 µM; in the experiment with HOP-62 NSCLC it was above 3.76 µM; in the experiment with MOLT-4 leukemia, 2.76 µM.
`Cc1cc(Nc2ccc(C)c(Cl)c2)n2nc(C(F)(F)F)nc2n1`: the GI50 in the experiment on CAKI-1 renal is 14.6 µM; in the experiment on LOX IMVI melanoma it was 26.5 µM; in the experiment with M14 melanoma it was 28.5 µM; with SR leukemia, 18.4 µM; in the experiment on UACC-62 melanoma, 19.6 µM; in the experiment with SF-268 CNS, 28.3 µM. Besides, the GI50 with TK-10 renal was 31.2 µM; with RPMI-8226 leukemia, 14 µM; in the experiment on HOP-62 NSCLC, 30.8 µM; in the experiment on MOLT-4 leukemia, 19.9 µM. Further, the TGI in the experiment on CAKI-1 renal was 34.7 µM; in the experiment on LOX IMVI melanoma, 73.9 µM; in the experiment on M14 melanoma, 76.5 µM; in the experiment on SR leukemia it was 57 µM; in the experiment with UACC-62 melanoma, 50.1 µM; in the experiment on SF-268 CNS, above 100 µM. Further, the TGI in the experiment on TK-10 renal was found to be 84.8 µM; in the experiment with RPMI-8226 leukemia, 39 µM; with HOP-62 NSCLC it was 98.9 µM; in the experiment with MOLT-4 leukemia, 94.3 µM.
On to `CN1CCN(C(=O)COc2ccc(C34CC5CC(CC(C5)C3)C4)cc2)CC1`, for which the GI50 is 15.6 µM with CAKI-1 renal; 12.3 µM with LOX IMVI melanoma; 15.3 µM in the experiment with M14 melanoma; 4.62 µM in the experiment on SR leukemia; 11 µM in the experiment on UACC-62 melanoma; 16.4 µM in the experiment with SF-268 CNS. Moreover, the GI50 is 16.7 µM with TK-10 renal, 2.09 µM with RPMI-8226 leukemia, 14.5 µM in the experiment on HOP-62 NSCLC and 13.2 µM in the experiment with MOLT-4 leukemia. Also, the TGI in the experiment with CAKI-1 renal was determined as 30.2 µM; with LOX IMVI melanoma, 25 µM; in the experiment on M14 melanoma it was 30.7 µM; in the experiment with SR leukemia, 97.4 µM; in the experiment with UACC-62 melanoma, 23.4 µM; in the experiment on SF-268 CNS it was 39.3 µM. The TGI stood at 33.2 µM in the experiment on TK-10 renal, 5.73 µM in the experiment with RPMI-8226 leukemia, 32.5 µM in the experiment on HOP-62 NSCLC and 94.9 µM with MOLT-4 leukemia.
`O=S1C(=c2ccc(=C3Sc4ccccc4S3)cc2)Sc2ccccc21` (stereo not given): the TGI is above 91.1 µM in the experiment on CAKI-1 renal; 32.2 µM in the experiment on LOX IMVI melanoma; 29 µM with M14 melanoma; above 100 µM in the experiment with SR leukemia; 35.2 µM in the experiment with UACC-62 melanoma; 37.3 µM in the experiment with SF-268 CNS. The TGI with TK-10 renal is above 100 µM; in the experiment with RPMI-8226 leukemia, above 100 µM; in the experiment with HOP-62 NSCLC it was 31.6 µM; in the experiment with MOLT-4 leukemia it was above 100 µM.
In the case of `O=C(O)C(Cl)Cl`, the GI50 is 5490 µM and > 10000 µM in the experiment with CAKI-1 renal; 7490 µM and > 10000 µM in the experiment with LOX IMVI melanoma; above 10000 µM with M14 melanoma; above 10000 µM in the experiment with SR leukemia; 6710 µM and > 10000 µM in the experiment on UACC-62 melanoma; 4970 µM and > 10000 µM with SF-268 CNS. The GI50 in the experiment on TK-10 renal is above 10000 µM; with RPMI-8226 leukemia it was 3210 µM and > 9400 µM; with HOP-62 NSCLC it was above 10000 µM; with MOLT-4 leukemia, 8180 µM and > 8700 µM. Moreover, the TGI with CAKI-1 renal, in the experiment on LOX IMVI melanoma, in the experiment on M14 melanoma, in the experiment with SR leukemia, in the experiment with UACC-62 melanoma and in the experiment on SF-268 CNS was above 10000 µM in each case. The TGI in the experiment with TK-10 renal, in the experiment on RPMI-8226 leukemia, in the experiment with HOP-62 NSCLC and with MOLT-4 leukemia was above 10000 µM throughout.
Consider `O=C1c2c(F)c(F)c(F)c(F)c2C(=O)N1c1ccc(F)cc1F`, for which the GI50 in the experiment with CAKI-1 renal was 8.44 µM; in the experiment with LOX IMVI melanoma it was 1.5 µM; in the experiment with M14 melanoma, 13.4 µM; in the experiment with SR leukemia, 0.144 µM; in the experiment on UACC-62 melanoma it was 4.11 µM; in the experiment on SF-268 CNS, 10.1 µM. Besides, the GI50 in the experiment on TK-10 renal is 13.7 µM; in the experiment with RPMI-8226 leukemia, 3.81 µM; in the experiment with HOP-62 NSCLC, 15.2 µM; with MOLT-4 leukemia it was 0.864 µM. Moreover, the TGI with CAKI-1 renal turned out to be 25.5 µM; in the experiment with LOX IMVI melanoma, 5.11 µM; in the experiment with M14 melanoma it was 33.6 µM; in the experiment with SR leukemia it was 1.2 µM; in the experiment with UACC-62 melanoma, 14.3 µM; in the experiment with SF-268 CNS it was 27.8 µM. Besides, the TGI in the experiment on TK-10 renal was above 51 µM; with RPMI-8226 leukemia, 65.4 µM; with HOP-62 NSCLC it was 31.4 µM; with MOLT-4 leukemia it was 3.73 µM.
For `O=C(/C=C/c1c(O)ccc2ccccc12)c1ccc([N+](=O)[O-])cc1`, the TGI is above 74 µM in the experiment on CAKI-1 renal; 33.4 µM in the experiment on LOX IMVI melanoma; 41.6 µM in the experiment on M14 melanoma; above 100 µM in the experiment with SR leukemia; 33.3 µM in the experiment with UACC-62 melanoma; above 100 µM with SF-268 CNS. In addition, the TGI in the experiment with TK-10 renal was above 96.4 µM; in the experiment with RPMI-8226 leukemia, above 100 µM; in the experiment on HOP-62 NSCLC it was above 100 µM; in the experiment on MOLT-4 leukemia it was above 90.4 µM.
